Measured values as given in patent US10406169B2, “Methods of monitoring estriol therapy” (The Regents of the University of California, priority 2015, dated 2019).

Key:
[1] = tested on: relapsing-remitting multiple sclerosis; test: Confirmed relapses (annualized relapse rate, time to first relapse); type: in vivo, human; conditions: for Annualized relapse rate in 12 months, Rate (95% CI) / Annualized relapse rate in 24 months, Rate (95% CI): negative binomial regression
Procedure: The primary efficacy end point was the annualized relapse rate. A relapse was defined as the appearance of new neurological symptoms or the worsening of pre-existing symptoms, lasting at least 48 hours in a subject who had been neurologically stable or improving in the previous 30 days, accompanied by an objective change in a neurological examination (i.e., a worsening of 0.5 or more points on the EDSS or a worsening by 1.0 or more points on the pyramidal, cerebellar, brainstem or visual functional system scores, not due to fatigue alone and not associated with fever or infection). […] Both treating and examining physicians were unaware of study group assignments. The standard treatment for relapse was a 3-5 day course of glucocorticoids at the discretion of the treating neurologist.
Intention-to-treat analyses were carried out for all end points. […] To control the overall type I error, a sequential testing procedure was applied. […] Consistent with a phase 2 study using a clinical outcome, a p-value<0.10 was considered statistically significant.
For the time to first relapse analysis, Kaplan Meier curves and log-rank test were used to estimate and compare the relapse free probabilities of the two treatment groups. Cox proportional hazards model was used to compare the time to relapse free probabilities between two groups adjusting for covariates. […] The random effect of subject is included in the model to account for within subject correlation.
For the primary endpoint, the main analysis seeks to compare the relapse event rate between treatment groups based on the negative binomial regression. As a sensitivity analysis, recurrent events analysis was performed based on Andersen Gill model to compare the relapse hazard rate between treatment groups.

[2] = tested on: relapsing-remitting multiple sclerosis; test: Gadolinium enhancing lesions on brain MRI; type: in vivo, human; set-up: Enhancing lesion volume, mean ± SD: unit not given here
Procedure: Mixed effects negative binomial regression model and linear mixed effects model were used to compare enhancing lesion volume (log-transformed) between treatment groups at all follow-ups, and mixed effects logistic model was used to compare the number of subjects positive for gadolinium enhancing lesions. Linear mixed effects model was carried out to compare the percent change in whole gray matter and cortical gray matter between treatment groups. For the exploratory endpoints of EDSS, PASAT, fatigue, depression, quality of life and brain volume measures, linear mixed effects model was used to compare treatment groups at 12 and 24 months.
Dual-echo fast spin echo: TR10000, TE12/95, 50 slices, 1×1×3 mm. Fluid attenuated inversion recovery (FLAIR): TR10380, TE88, TI88, TI2500, 50 slices, 1×1×3 mm. Minor changes were allowed to accommodate different platforms and field strengths at each site. MRI data in Dicom format were fully anonymized prior to transfer and then uploaded to the central MRI reading center database. Prior to study onset, each site provided a dummy scan utilizing the standardized sequences for review by the central MRI reading center to verify scan quality and fidelity. Quality control was maintained at each site using standard procedures for clinical scanners (daily phantoms, stability testing). Quarterly phantoms were collected from 12 of the 15 sites, most using the standard American College of Radiology (ACR) phatom. One site upgraded from a Siemens 1.5T to a 3.0T in November 2013, resulting in the acquisition of one month 24 scan on the new scanner. One site upgraded from a Phillips Achieva 3.0T to a Pillips Intera 3.0T after the first subject completed month 24. All subsequent studies were performed on the Intera.
Analysis of gadolinium enhancing lesions and T2 lesions were performed as described by Sicotte et al. (Ann. Neurology 52:421 (2002)). Briefly, MRI data was coded by study site and randomization number. The number and volume of enhancing lesions were quantified on the post contrast T1 weighted scans by an experienced investigator who was blind to treatment group using a semi-automated threshold-based algorithm. To assess T2 lesions, all FLAIR images were RF corrected, then intensity normalized and registered into a common space defined by the baseline scan for each individual. All subsequent scans were registered to the baseline exam for spatial normalization using a rigid body model. T2 lesion areas were determined using a semi-automated intensity based segmentation procedure by a trained, experienced researcher verified by a single investigator (NLS).

glatiramer acetate [Placebo + GA]
Proportion of pts with relapse at 12 months % (95% CI) ([1]; Kaplan-Meier): 33.1 (23.5-45.2) % | Proportion of pts with relapse at 24 months % (95% CI) ([1]; Kaplan-Meier): 42.9 (32.1-55.5) % | Annualized relapse rate in 12 months, Rate (95% CI) [1]: 0.48 (0.33-0.69) | Annualized relapse rate in 24 months, Rate (95% CI) [1]: 0.37 (0.25-0.53) | Annualized relapse rate in 12 months, Rate (95% CI) ([1]; listed as Placebo+GA): 0.48 | Annualized relapse rate in 24 months, Rate (95% CI) ([1]; listed as Placebo+GA): 0.37 | Enhancing lesion volume, mean ± SD ([2]; Baseline): 49.9 ± 121.2 | Enhancing lesion volume, median ([2]; Baseline): 0 | Percentage patients with enhancing lesions % (95% CI) ([2]; Baseline): 29.3 (19.0-39.6) % | Enhancing lesion volume, mean ± SD ([2]; Month 12): 27.4 ± 147.2 | Enhancing lesion volume, median ([2]; Month 12): 0 | Percentage patients with enhancing lesions % (95% CI) ([2]; Month 12): 21.0 (10.8-31.1) % | Enhancing lesion volume, mean ± SD ([2]; Month 24): 17.9 ± 71.1 | Enhancing lesion volume, median ([2]; Month 24): 0 | Percentage patients with enhancing lesions % (95% CI) ([2]; Month 24): 14.6 (5.2-23.9) % | Decrease in enhancing lesion volumes ([2]; month 12 vs baseline): 45%
